{
  "source": "patent US11912682B2",
  "about": "“Isoindolinone compounds” (Monte Rosa Therapeutics, Inc., priority 2021, dated 2024)",
  "key": {"NCI-H1155": {"tested_on": "NCI-H1155", "test": "Viability of NSCLC cell line, high N-Myc (FIG. 2A)", "assay_type": "cell-based, human", "settings": "compared to low N-Myc lines EBC-1, NCI-H2023"}, "GSPT1 [1]": {"biological_target": "T1, GSPT1 (Homo sapiens (Human), UniProt P15170+Q96SW2)", "test": "GSPT1 degradation in cells treated with compound (FIG. 1A)", "assay_type": "cell-based", "settings": "cells treated with 0.3 µM"}, "GSPT1 [2]": {"biological_target": "T1, GSPT1", "test": "quantitative proteomics analysis in ABC1 cells", "assay_type": "cell-based", "settings": "100 nM, 6 hr", "procedure": "Quantitative Proteomics Analysis: ABC1 cells were treated with either DMSO (2 replicates) or compound 10 at 100 nM (2 replicates) for 6 hr. Proteins were extracted with the PreOmics iST-NHS lysis buffer (#P.O.00030). The samples were then processed using the PreOmics kit following their recommended protocol with minor modifications. In brief, the proteins were reduced, alkylated and digested for 2 h at 37° C. The peptides were then labelled with TMT reagent (1:4; peptide:TMT label) (Thermo Fisher Scientific). After quenching, the peptides were purified, and the 16 samples were combined to a 1:1 ratio. […] Eluted TMT peptides were analyzed on an Orbitrap Eclipse mass spectrometer (Thermo Fisher Scientific). […] Precursors were fragmented by CID at a normalized collision energy (NCE) of 35% and analyzed in the ion trap. Following MS2, synchronous precursor selection (SPS) MS3 scans were collected by using high energy collision-induced dissociation (HCD) and fragments were analyzed using the Orbitrap (NCE 55%, AGC target 1×10^5, maximum injection time 120 ms, resolution 60,000). Protein identification and quantification were performed using Proteome Discoverer 2.4.0.305 with the SEQUEST algorithm and Uniprot human database (2021 Jan. 29, 20614 protein sequences). […] Protein relative quantification was performed using an in-house developed java notebook. […]"}, "SALL": {"biological_target": "SALL (Homo sapiens (Human), UniProt Q9UJQ4)", "sequence (Q9UJQ4 whole entry, looked up)": "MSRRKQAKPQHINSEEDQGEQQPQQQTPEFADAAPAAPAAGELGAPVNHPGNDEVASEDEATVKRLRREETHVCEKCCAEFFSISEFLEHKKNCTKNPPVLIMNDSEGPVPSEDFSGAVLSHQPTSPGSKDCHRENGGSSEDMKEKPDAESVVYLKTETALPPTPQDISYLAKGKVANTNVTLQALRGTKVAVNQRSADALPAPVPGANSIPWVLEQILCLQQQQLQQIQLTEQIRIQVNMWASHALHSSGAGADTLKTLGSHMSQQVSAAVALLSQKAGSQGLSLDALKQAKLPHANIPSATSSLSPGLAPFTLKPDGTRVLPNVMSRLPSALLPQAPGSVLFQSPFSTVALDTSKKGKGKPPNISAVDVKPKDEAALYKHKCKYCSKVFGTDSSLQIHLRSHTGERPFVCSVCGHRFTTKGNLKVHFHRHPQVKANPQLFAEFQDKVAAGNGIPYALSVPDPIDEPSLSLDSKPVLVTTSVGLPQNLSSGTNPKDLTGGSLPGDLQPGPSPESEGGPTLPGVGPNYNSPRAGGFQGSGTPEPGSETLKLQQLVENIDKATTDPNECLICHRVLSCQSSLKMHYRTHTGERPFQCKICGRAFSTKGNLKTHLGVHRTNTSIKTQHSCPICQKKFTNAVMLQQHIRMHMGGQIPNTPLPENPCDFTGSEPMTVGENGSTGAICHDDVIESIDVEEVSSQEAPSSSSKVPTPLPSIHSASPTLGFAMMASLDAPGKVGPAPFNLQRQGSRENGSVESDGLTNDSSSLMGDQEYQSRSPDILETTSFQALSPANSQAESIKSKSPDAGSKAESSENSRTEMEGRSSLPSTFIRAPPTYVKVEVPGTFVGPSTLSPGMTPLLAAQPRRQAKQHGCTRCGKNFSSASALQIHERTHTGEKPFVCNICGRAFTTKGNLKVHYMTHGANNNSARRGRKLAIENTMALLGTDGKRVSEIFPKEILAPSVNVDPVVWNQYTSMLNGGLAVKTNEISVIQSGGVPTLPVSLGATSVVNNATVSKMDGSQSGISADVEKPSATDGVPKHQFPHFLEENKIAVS", "test": "SALL degradation in cells treated with compound (FIG. 1A)", "assay_type": "cell-based", "settings": "concentrations up to 30 µM"}, "GSPT1 [3]": {"biological_target": "T1, GSPT1", "test": "Mass spectrometry-based proteomics analysis of a treated cancer cell line (FIG. 1B)", "settings": "cancer cell line treated with compound; fold-change (log2) vs p-value"}},
  "data": [
    {"molecule": "Cc1ccc(NC(=O)OCc2ccc3c(c2)C(=O)N(C2CCC(=O)NC2=O)C3)cc1Cl", "note": "(centres unmarked) [Compound 10]", "values": [
      {"measurement": "sensitivity to treatment (viability in %)", "setting": "NCI-H1155", "value": "highly sensitive"},
      {"measurement": "degradation of GSPT1", "setting": "GSPT1 [1]", "value": "complete degradation"},
      {"measurement": "protein downregulation by mass spectrometry-based proteomics (FIG. 1B)", "setting": "GSPT1 [2]", "value": "GSPT1 was the most statistically significant downregulated protein"},
      {"measurement": "degradation of SALL", "setting": "SALL", "value": "no induction of degradation"},
      {"measurement": "GSPT1 protein change in proteomics analysis", "setting": "GSPT1 [3]", "value": "most statistically significant downregulated protein"}
    ]}
  ]
}
